Results on 18 molecules are retold here after patent publication US10647675B2 (priority 2015, dated 2020).

Assay [1] has as its system Trichophyton mentagrophytes SM-110. Kind of assay: Antifungal activity evaluation test: minimum inhibitory concentration (MIC), broth dilution by reference to CLSI M38-A2. The conditions noted are these: SM110, read-out: MIC (T. menta.). The format is cell-based. The procedure, abridged: (§1)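 Broth microdilution after CLSI M38-A2: 2-fold DMSO dilution series in MOPS-buffered RPMI 1640 pH 7.0, inoculum 2×10^3 cells/mL final. Incubated 35° C for 4 days; MIC (μg/mL) is lowest concentration giving visually ≥80% growth inhibition versus growth control.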
(In general: Dilution methods test growth across graded concentrations, often in twofold steps.)

Assay [2] has as its system Trichophyton rubrum KD-1130. The assay is described as above. The format is cell-based. The following applies: KD1130, read-out: MIC (T. rubrum). The procedure, abridged:
as §1

Converted amounts (≈) assume the structure as drawn.

`COc1ncncc1-c1cccnc1Oc1ccc2c(c1)CCCC2` [I-271, 4′-methoxy-5-{2-[(5,6,7,8-tetrahydronaphthalen-2-yl)oxy]pyridin-3-yl}pyrimidine]: the MIC in assay [1] and in assay [2] was not above 0.1 µg/mL in each case.
Turning to `COc1cc(F)c(F)cc1-c1cncnc1Oc1ccc(C(F)(F)F)nc1` [I-328, 5-(4,5-difluoro-2-methoxyphenyl)-4-{[6-(trifluoromethyl)pyridin-3-yl]oxy}pyrimidine], the MIC in assay [1] and in assay [2] was not above 0.1 µg/mL each time.
As to `COc1ncccc1-c1cccnc1Oc1ccc(C(F)(F)F)cc1` [I-202, 2-methoxy-2′-[4-(trifluoromethyl)phenoxy]-3,3′-bipyridine], the MIC in assay [1] and in assay [2] was not above 0.1 µg/mL each time.
In the case of `COC(=O)CN(C)c1ncc(Oc2ncccc2-c2ccccc2OC)cn1` [I-387, methyl 2-[(5-{[3-(2-methoxyphenyl)pyridin-2-yl]oxy}pyrimidin-2-yl)(methyl)amino]acetate], the MIC in assay [1] and in assay [2] was not above 0.1 µg/mL throughout.
Regarding `CCOCCc1ccc(Oc2ncccc2-c2cccc3ccnn23)cc1` [I-412, 7-{2-[4-(2-ethoxyethyl)phenoxy]pyridin-3-yl}pyrazolo[1,5-a]pyridine], the minimum inhibitory concentration (MIC) in assay [1] and in assay [2] was not above 0.1 µg/mL each time.
As to `COc1ccccc1-c1cccnc1Oc1ccc2c(c1)CCC2` [I-345, 2-[(2,3-dihydro-1H-inden-5-yl)oxy]-3-(2-methoxyphenyl)pyridine], the MIC in assay [1] and in assay [2] was not above 0.1 µg/mL each time.
For the molecule `CC(F)(F)c1ccc(Oc2ncccc2-c2cccc3c(Cl)cnn23)cn1` [I-116, 3-chloro-7-(2-{[6-(1,1-difluoroethyl)pyridin-3-yl]oxy}pyridin-3-yl)pyrazolo[1,5-a]pyridine], the MIC in assay [1] and in assay [2] was not above 0.1 µg/mL each time.
Take `COc1cc(F)ccc1-c1cccnc1Oc1ccc(C(F)(F)Cn2cccn2)nc1` [I-157, 2-{(6-[1,1-difluoro-2-(1H-pyrazol-1-yl)ethyl]pyridin-3-yl)oxy}-3-(4-fluoro-2-methoxyphenyl)pyridine]: the MIC in assay [1] and in assay [2] was not above 0.1 µg/mL throughout.
In the case of `CCc1ccc(Oc2ncccc2-c2cncc(Cl)c2OC)cc1` [I-284, 5′-chloro-2-(4-ethylphenoxy)-4′-methoxy-3,3′-bipyridine], the minimum inhibitory concentration (MIC) in assay [1] and in assay [2] was not above 0.1 µg/mL throughout.
Take `Cc1cc(Oc2ncccc2-c2cccc3ccnn23)ccc1C(F)F` [I-462]: the MIC in assay [1] and in assay [2] was not above 0.1 µg/mL throughout.
For `COc1c(Cl)cncc1-c1cccnc1Oc1ccc(C(F)F)cc1` [I-355, 5′-chloro-2-[4-(difluoromethyl)phenoxy]-4′-methoxy-3,3′-bipyridine], the minimal inhibitory concentration (MIC) in assay [1] and in assay [2] was not above 0.1 µg/mL throughout.
For the molecule `COc1ncccc1-c1cccnc1Oc1ccc(C(F)(F)CO)nc1` [I-347], the MIC in assay [1] and in assay [2] was 1.56 to 6.25 µg/mL (≈ 4.34 to 17.4 µM) throughout.
As for `CCc1ccc(Oc2ncccc2-c2cccnc2OC)cn1` [I-126, 2-[(6-ethylpyridin-3-yl)oxy]-2′-methoxy-3,3′-bipyridine], the MIC in assay [1] and in assay [2] was 0.2 to 0.78 µg/mL (≈ 0.651 to 2.54 µM) each time.
Turning to `CCOC(=O)c1ccc(Oc2ncccc2-c2cnccc2CC)cc1` [I-416], the MIC in assay [1] and in assay [2] was not above 0.1 µg/mL throughout.
As for `COc1ccccc1-c1cccnc1Oc1ccc(C)nc1` [I-68], the MIC in assay [1] and in assay [2] was 1.56 to 6.25 µg/mL (≈ 5.34 to 21.4 µM) throughout.
Consider `FC(F)(F)c1ccc(Oc2ncccc2-c2cccc3ccncc23)cn1` [I-43, 8-(2-{[6-(trifluoromethyl)pyridin-3-yl]oxy}pyridin-3-yl)-isoquinoline], for which the minimum inhibitory concentration (MIC) in assay [1] and in assay [2] was 0.2 to 0.78 µg/mL (≈ 0.544 to 2.12 µM) in each case.
As for `FC(F)(F)c1ccc(Oc2ncccc2-c2cncc3nccnc23)cc1` [I-227, 8-{2-[4-(trifluoromethyl)phenoxy]pyridin-3-yl}pyrido[3,4-b]pyrazine], the MIC in assay [1] and in assay [2] was not above 0.1 µg/mL each time.
As to `CCOC(=O)c1ccc(Oc2ncccc2-c2cnccc2OC)cc1` [I-245], the MIC in assay [1] and in assay [2] was not above 0.1 µg/mL throughout.

A word on the MIC: it is the smallest concentration in the dilution series that meets the test's criterion for growth inhibition.
